From ChEMBL document CHEMBL3045013, “Suppression of pine wilt disease by an antibacterial agent, oxolinic acid” (2010)
Activity calls are given as the source filed them. The rule behind the calls is not given here.

How the values were obtained:
Serratia marcescens = experiment: Antibacterial activity against Serratia marcescens subsp. marcescens KRICT4 at 1.6 mg/l after 24 hr; type: functional, organism-based
Enterobacter asburiae = experiment: Antibacterial activity against Enterobacter asburiae KRICT3 at 1.6 mg/l after 24 hr; type: functional, organism-based
[1] = test system: Bursaphelenchus xylophilus; experiment: Nematicidal activity against Bursaphelenchus xylophilus assessed as mortality at 0.34 mg/l after 48 hr; type: functional
[2] = test system: Bursaphelenchus xylophilus; experiment: (§1) Nematicidal activity against Bursaphelenchus xylophilus in pot-grown three-year-old trees of Pinus densiflora assessed as reduction of disease incidence at 3.6 mg/seedlings treated 7 days before inoculation measured after 1 month by measuring dead seedling under greenhouse condition; type: functional; set-up: scale not given: the % may be the effect or the level left
[3] = test system: Bursaphelenchus xylophilus; experiment: Nematicidal activity against Bursaphelenchus xylophilus in pot-grown three-year-old trees of Pinus densiflora assessed as reduction of disease incidence at 2% treated 3 months before inoculation measured after 9 months by measuring dead trees relative to control; type: functional; set-up: scale not given: the % may be the effect or the level left
[4] = test system: Bursaphelenchus xylophilus; experiment: as §1, with “condition relative to control” for “condition”; type: functional; set-up: scale not given: the % may be the effect or the level left
[5] = test system: Bursaphelenchus xylophilus; experiment: Nematicidal activity against Bursaphelenchus xylophilus in pot-grown three-year-old trees of Pinus densiflora assessed as reduction of disease incidence at 2% treated 3 months before inoculation measured after 9 months by measuring dead trees; type: functional; set-up: scale not given: the % may be the effect or the level left
[6] = test system: Bursaphelenchus xylophilus; experiment: as §1, with “30” for “3.6”, “condition relative to control” for “condition”; type: functional; set-up: scale not given: the % may be the effect or the level left
[7] = test system: Bursaphelenchus xylophilus; experiment: as §1, with “3” for “3.6”, “condition relative to control” for “condition”; type: functional; set-up: scale not given: the % may be the effect or the level left
[8] = test system: Peribacillus frigoritolerans; experiment: Antibacterial activity against [Brevibacterium] frigoritolerans KRICT2 at 1.6 mg/l after 24 hr; type: functional, organism-based
Ewingella americana = experiment: Antibacterial activity against Ewingella americana KRICT5 at 1.6 mg/l after 24 hr; type: functional, organism-based
[9] = test system: Bursaphelenchus xylophilus; experiment: Nematicidal activity against Bursaphelenchus xylophilus assessed as mortality at 10 mg/l after 48 hr; type: functional
[10] = test system: Bursaphelenchus xylophilus; experiment: Nematicidal activity against Bursaphelenchus xylophilus in pot-grown three-year-old trees of Pinus densiflora assessed as reduction of disease incidence at 10% treated 3 months before inoculation measured after 9 months by measuring dead trees relative to control; type: functional; set-up: scale not given: the % may be the effect or the level left
[11] = test system: Bursaphelenchus xylophilus; experiment: as §1, with “10” for “3.6”, “condition relative to control” for “condition”; type: functional; set-up: scale not given: the % may be the effect or the level left
[12] = test system: Bursaphelenchus xylophilus; experiment: Nematicidal activity against Bursaphelenchus xylophilus in pot-grown three-year-old trees of Pinus densiflora assessed as reduction of disease incidence at 30 mg/seedlings treated 7 days before inoculation measured after 1 month by measuring dead seedling under greenhouse condition; type: functional; set-up: scale not given: the % may be the effect or the level left
[13] = test system: Bursaphelenchus xylophilus; experiment: Nematicidal activity against Bursaphelenchus xylophilus in pot-grown three-year-old trees of Pinus densiflora assessed as reduction of disease incidence at 10% treated 3 months before inoculation measured after 9 months by measuring dead trees; type: functional; set-up: scale not given: the % may be the effect or the level left
[14] = test system: Bursaphelenchus xylophilus; experiment: Nematicidal activity against Bursaphelenchus xylophilus in pot-grown three-year-old trees of Pinus densiflora assessed as reduction of disease incidence at 10 mg/seedlings treated 7 days before inoculation measured after 1 month by measuring dead seedling under greenhouse condition; type: functional; set-up: scale not given: the % may be the effect or the level left
[15] = test system: Bursaphelenchus xylophilus; experiment: Nematicidal activity against Bursaphelenchus xylophilus in pot-grown three-year-old trees of Pinus densiflora assessed as reduction of disease incidence at 3 mg/seedlings treated 7 days before inoculation measured after 1 month by measuring dead seedling under greenhouse condition; type: functional; set-up: scale not given: the % may be the effect or the level left

SMILES: CN(C)[C@@H]1C(O)=C(C(N)=O)C(=O)[C@@]2(O)C(O)=C3C(=O)c4c(O)cccc4[C@@](C)(O)[C@H]3[C@H](O)[C@@H]12
- Activity (Serratia marcescens): Active
- Activity (Enterobacter asburiae): Active

SMILES: CC[C@H](C)[C@H]1O[C@]2(C=C[C@@H]1C)C[C@@H]1C[C@@H](C/C=C(\C)[C@@H](O[C@H]3C[C@H](OC)[C@@H](O[C@H]4C[C@H](OC)[C@@H](O)[C@H](C)O4)[C@H](C)O3)[C@@H](C)/C=C/C=C3\CO[C@@H]4[C@H](O)C(C)=C[C@@H](C(=O)O1)[C@]34O)O2.CO[C@H]1C[C@H](O[C@H]2[C@H](C)O[C@@H](O[C@@H]3/C(C)=C/C[C@@H]4C[C@@H](C[C@]5(C=C[C@H](C)[C@@H](C(C)C)O5)O4)OC(=O)[C@@H]4C=C(C)[C@@H](O)[C@H]5OC/C(=C\C=C\[C@@H]3C)[C@]54O)C[C@@H]2OC)O[C@@H](C)[C@@H]1O [ABAMECTIN]
- Activity [1]: 90%
- Activity [2]: 20%
- Activity [3]: 93%
- Activity [4]: 71%
- Activity [5]: 6.7%

SMILES: CCn1cc(C(=O)O)c(=O)c2cc3c(cc21)OCO3 [OXOLINIC ACID]
- Activity [6]: 57%
- Activity [7]: 71%
- Activity (Serratia marcescens): Active
- Activity [8]: Active
- Activity (Ewingella americana): Active
- Activity [9]: 22%
- Activity [10]: 74%
- Activity [11]: 57%
- Activity [12]: 30%
- Activity [13]: 23.3%
- Activity [14]: 30%
- Activity [15]: 20%
